In US20240252655A1, “DEUBIQUITINASE-TARGETING CHIMERAS AND RELATED METHODS” (Novartis AG, priority 2021, published 2024):

How the values were obtained:
OTUB1 [1] = molecular target: T1, OTUB1 (Homo sapiens, UniProt Q96FW1); experiment: Gel-based ABPP: competition against IA-rhodamine labeling of OTUB1; type: binding; settings: pre-incubated with OTUB1 30 min at 37° C.; IA-rhodamine 500 nM, 30 min room temperature; in-gel fluorescence; n=3
Procedure: Vehicle (DMSO) or an exemplary DUB Recruiter (Compound 100) were pre-incubated with OTUB1 for 30 min at 37° C. prior to IA-rhodamine labeling (500 nM, 30 min room temperature). OTUB1 was then separated by SDS/PAGE and in-gel fluorescence was assessed. Protein loading is illustrated by silver staining. The gel shown is representative gel of n=3 biologically independent samples/group.
Recombinant OTUB1 ([…]) was pre-treated with either DMSO vehicle or covalent ligand or bifunctional compounds at 37° C. for 30 min in 25 μL of PBS, and subsequently treated with of IA-Rhodamine (Setareh Biotech) at room temperature for 1 h. The reaction was stopped by addition of 4× reducing Laemmli SDS sample loading buffer (Alfa Aesar). After boiling at 95° C. for 5 min, the samples were separated on precast 4-20% Criterion TGX gels (Bio-Rad). Probe-labeled proteins were analyzed by in-gel fluorescence using a ChemiDoc MP (Bio-Rad).
A covalent ligand screen of cysteine-reactive libraries competed against IA-rhodamine labeling of a recombinant exemplary deubiquitinase OTUB1 was carried out to identify small molecule binders to OTUB1 by gel-based activity-based protein profiling (ABPP). […] OTUB1 was then separated by SDS/PAGE and in-gel fluorescence was assessed and quantified.
Target sequence in this assay (Q96FW1 whole entry): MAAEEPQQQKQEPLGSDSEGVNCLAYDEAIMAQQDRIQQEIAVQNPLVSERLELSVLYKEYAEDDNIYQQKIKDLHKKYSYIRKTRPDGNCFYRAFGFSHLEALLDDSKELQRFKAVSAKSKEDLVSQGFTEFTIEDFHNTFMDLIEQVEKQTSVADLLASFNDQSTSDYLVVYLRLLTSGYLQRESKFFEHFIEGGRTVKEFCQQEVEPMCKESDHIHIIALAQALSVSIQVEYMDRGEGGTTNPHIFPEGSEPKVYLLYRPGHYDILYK

OTUB1 [2] = molecular target: T1, OTUB1; experiment: LC-MS/MS analysis of tryptic peptides from OTUB1 covalently bound to DUB Recruiter; type: binding; settings: tryptic peptides from OTUB1 covalently bound to compound
Target sequence in this assay (Q96FW1 whole entry): as above

OTUB1 [3] = molecular target: T1, OTUB1; experiment: In vitro reconstituted OTUB1 deubiquitination activity assay (monoubiquitin release from di-ubiquitin); type: biochemical; parameters: dose or concentration left out as unconfirmed; settings: in the presence of UBE2D1; OTUB1 pre-incubated with Compound 100 for 1 hr; Western blotting
Procedure: These studies were performed in the presence of OTUB1-stimulating Ubiquitin-conjugating enzyme E2 D1 (UBE2D1), an E2 ubiquitin ligase that engages in a complex with OTUB1 to stimulate OTUB1 activity.
Previously described methods were used to assess DUB Recruiters effects on OTUB1 activity. Recombinant OTUB1 (500 nM) was pre-incubated with DMSO or Compound 100 […] for 1 hr. To initiate assay pre-treated OTUB1 enzyme was mixed 1:1 with di-Ub reaction mix for final concentrations of 250 nM OTUB1, 1.5 μM di-Ub, 12.5 μM UBE2D1 and 5 mM DTT. The appearance of mono-Ub was monitored by Western blotting over time by removing a portion of the reaction mix and adding Laemmli's buffer to terminate the reaction. Blot shown is a representative gel from n=3 biologically independent experiments/group.
Target sequence in this assay (Q96FW1 whole entry): as above
Target sequence in this assay (P51668 whole entry partner): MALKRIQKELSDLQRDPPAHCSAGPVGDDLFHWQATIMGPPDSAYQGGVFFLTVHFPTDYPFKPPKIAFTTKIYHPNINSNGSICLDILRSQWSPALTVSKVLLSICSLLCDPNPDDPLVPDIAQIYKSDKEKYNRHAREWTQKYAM

CFTR-OTUB1 complex = CFTR-OTUB1 complex (Homo sapiens, UniProt P13569+Q96FW1, DEL508-508); experiment: Native mass spectrometry analysis of ternary complex formation; settings: native MS; recombinant OTUB1 and DF508-harboring CFTR nucleotide-binding domain; 50 μM compound final
Procedure: FIGS. 15A-15D are images that confirm formation of a ternary complex between CFTR, an exemplary bifunctional compound (Compound 201), and OTUB1 in vitro using recombinant protein and native mass spectrometry (MS)-based approaches. FIGS. 15A-15C depict native mass spectra of CFTR-OTUB1 complex formation in the presence of DMSO (FIG. 15A), the DUB Recruiter Compound 100 alone (FIG. 15B), or the bifunctional compound Compound 201 (FIG. 15C).
Native mass spectrometry experiments were performed on a Thermo QE UHMR equipped with a nano-electrospray ionization source (Advion TriVersa NanoMate). Recombinant OTUB1 was first buffer exchanged into 150 mM ammonium acetate, 100 μM MgCl2, and 100 μM ATP at pH 6.7. 4 μM OTUB1 was then pre-incubated at room temperature for 24 hours with either DMSO, DUB Recruiter Compound 100 (100 μM), or DUBTAc Compound […] (100 μM). After 24 hours, 4 μM CFTR, in the same buffer, was added to the OTUB1 solution, for final concentrations of 2 μM of each protein with either DMSO or 50 μM compound. The solution was then allowed to incubate for 30 minutes prior to analysis on the mass spectrometer. Mass spectra were recorded in positive ion mode with a mass range of 1000-8000 m/z. Each spectrum was then deconvoluted and relevant peaks were integrated to determine % ternary complex formed. All experiments were performed in triplicate.

Sequence of CFTR-OTUB1 complex (Q96FW1 whole entry, stated change not applied, the tested form may be a part): as the sequence (Q96FW1 whole entry) above
Sequence of CFTR-OTUB1 complex (P13569 with tags, fused parts or gaps DEL508-508 limits assumed): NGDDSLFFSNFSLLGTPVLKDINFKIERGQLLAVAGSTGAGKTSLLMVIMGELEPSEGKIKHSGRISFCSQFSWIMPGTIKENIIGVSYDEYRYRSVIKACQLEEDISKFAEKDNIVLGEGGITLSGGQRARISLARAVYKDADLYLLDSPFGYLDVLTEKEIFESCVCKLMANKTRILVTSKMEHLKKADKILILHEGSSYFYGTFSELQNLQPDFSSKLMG

inhibition of IA-rhodamine binding of OTUB1 (OTUB1 [1]) | cysteine of OTUB1 targeted (covalent modification site) (OTUB1 [2]) | modification of the catalytic C91 of OTUB1 (OTUB1 [2]) | OTUB1 deubiquitination activity (monoubiquitin release from di-ubiquitin) (OTUB1 [3]) | Compound | CFTR-OTUB1 complex formation (CFTR-OTUB1 complex)
dose-responsive inhibition | selectively targets C23 | no detectable modification | does not inhibit | C=CC(=O)N1CCN(c2ccc(C)o2)C(=O)C1 [Compound 100] | not
 |  |  |  | C=CC(=O)N1CCN(c2ccc(CCC(=O)NCCCCCNC(=O)c3cccc(-c4nc(NC(=O)C5(c6ccc7c(c6)OC(F)(F)O7)CC5)ccc4C)c3)o2)C(=O)C1 [Compound 201, N-(5-(3-(5-(4-acryloyl-2-oxopiperazin-1-yl)furan-2-yl)propanamido)pentyl)-3-(6-(1-(2,2-difluorobenzo[d][1,3]dioxol-5-yl)cyclopropane-1-carboxamido)-3-methylpyridin-2-yl)benzamide] | significant CFTR-OTUB1 complex formation was observed
